Test results published in patent US20050019742A1, “Methods for assessment of platelet aggregation” (priority 2002, published 2005).
Where a SMILES comes first, the peptide text is derived from it. Bridges are numbered along the chain shown (N, C = ends). [ ]: non-standard residue; d: D form. hArg = N=C(N)NCCCC[C@H](N)C(=O)O; Mpa = O=C(O)CCS

How the values were obtained:
platelet aggregation [1] = test: Light transmission aggregometry (LTA) in PPACK platelet rich plasma, ADP-induced aggregation; assay type: cell-based, human; conditions: samples in which Ultegra measures inhibition of 80% or greater, average lower end of a range reaching greater than 80%, ADP 20 μM
Experimental: Sufficient blood volume was collected to complete matched comparisons for each donor in all three assays. Using a 19 g butterfly needle, blood was collected by venipuncture into a plastic syringe and transferred to a tube containing PPACK anticoagulant (0.3 mM final concentration) or into PPACK vacuettes provided by Ultegra®. An EDTA baseline tube was also drawn per Plateletworks® recommendation. One 10 mL sample of PPACK blood was centrifuged at 135 g for 15 minutes to obtain platelet rich plasma (“PRP”) for use in traditional light transmission aggregometry. The residual blood from this tube was centrifuged at 1500 g for 15 minutes to obtain platelet poor plasma (“PPP”). PRP was diluted to 250,000/mm^3 with autologous PPP. Diluted PRP (0.5 ml) was added to an aggregation cuvette and placed into the 37° C. aggregation chamber. Eptifibatide (125-4000 nM) or tirofiban (25-200 nM) was added to PRP, incubated for at least two minutes. 50 μl ADP (20 μM final concentration) was added to 0.45 ml PRP and the aggregation response was recorded. A baseline aggregation response (no antagonist present) was determined for each donor. Percent aggregation was calculated at the point of maximum light transmission obtained within five minutes. Percent inhibition of aggregation (IPA) was calculated using the following formula: [formula]

platelet aggregation [2] = test: ICHOR/Plateletworks whole blood platelet aggregation (platelet count), PPACK anticoagulant, ADP agonist; assay type: cell-based, human; conditions: for platelet inhibition measured by ICHOR/Plateletworks: samples in which Ultegra measures inhibition of 80% or greater, average lower end of a range reaching greater than 80%, PPACK whole blood, ADP 20 μM
Experimental: Whole blood platelet aggregation was performed using a procedure modified from that outlined in the Helena Plateletworks® brochure. PPACK anticoagulant was used instead of citrate due to the well-documented effect of citrate overestimating the level of platelet inhibition by all currently approved GPIIb-IIIa antagonists (Phillips et al., “Effect of Ca^++ on Integrilin™ GPIIb-IIIa Interactions: Enhanced GPIIb-IIIa Binding and Inhibition of Platelet Aggregation by Reductions in the Concentration of Ionized Calcium in Plasma Anticoagulated with Citrate,” Circulation 96:1488-1494 (1997); Nannizzi-Alaimo et al., “Effect of Citrate Anticoagulation and Platelet Agonist Concentration on the Inhibitory Activities of GPIIb-IIIa Antagonists,” Circulation 100:1710 (1999); Kereiakes et al., “Differential Effects of Citrate Versus PPACK Anticoagulation on Measured Platelet Inhibition by Abciximab, Eptifibatide and Tirofiban,” J. Thromb. Thrombolysis 12:123-127 (2001); Jennings et al., “The Pharmacodynamics of Parenteral Glycoprotein IIb/IIIa Inhibitors,” J. Interv. Cardiol. 15(1):45-60 (2002), each of which is hereby incorporated by reference in its entirety). For this assay, 1.0 ml of PPACK anticoagulated whole-blood was mixed with increasing concentrations of eptifibatide or tirofiban and incubated for at least 2 minutes. After addition of ADP (20 μM), the tube was inverted 15-20 times to ensure mixing, and the platelet count was performed immediately (test sample). A baseline tube was also drawn and handled exactly as the antagonist sample tube minus the addition of agonist. A platelet count was also performed on blood collected into EDTA per the manufacturer's instructions. Percent inhibition of platelet aggregation was obtained from the platelet inhibition/aggregation calculation wheel provided with Plateletworks®.
When testing samples containing Reopro, the ICHOR instrument never achieves more than 60% inhibition of aggregation. […]

| Molecule | platelet inhibition measured by LTA (platelet aggregation [1]) [%] | platelet inhibition measured by ICHOR/Plateletworks (platelet aggregation [2]) [%] | inhibition of aggregation (maximum achieved on ICHOR instrument) (platelet aggregation [2]; samples containing Reopro, microaggregates are counted as aggregation) [%] |
| --- | --- | --- | --- |
| N=C(N)NCCCC[C@@H]1NC(=O)CCSSC[C@@H](C(N)=O)NC(=O)[C@@H]2CCCN2C(=O)[C@H](Cc2c[nH]c3ccccc23)NC(=O)[C@H](CC(=O)O)NC(=O)CNC1=O [eptifibatide] ([Mpa][hArg]GDWPC-NH2; disulfide 1-7) | ≥ 30 | ≥ 30 | – |
| CCCCS(=O)(=O)N[C@@H](Cc1ccc(OCCCCC2CCNCC2)cc1)C(=O)O [tirofiban] | ≥ 35 | ≥ 35 | – |
| Reopro: antibody based GPIIbIIIa antagonist (antibody, chains of the INN, looked up, V domains shown, Fab, antibody based GPIIbIIIa antagonist) VH: EVQLQQSGTVLARPGASVKMSCEASGYTFTNYWMHWVKQRPGQGLEWIGAIYPGNSDTSYIQKFKGKAKLTAVTSTTSVYMELSSLTNEDSAVYYCTLYDGYYVFAYWGQGTLVTVSA VL: EIVLTQSPVTLSVTPGDSVSLSCRASRDISNNLHWFQQTSHESPRLLIKYASQSMSGIPSRFSGSGSGTDFTLSINSVETEDFGMYFCQQTNSWPYTFGGGTKLEIK | – | – | ≤ 60 |
